# Entries after “also recorded” stand apart in the source; their conditions may differ.
# Legend:
# CLL cells = assay: Cytotoxicity in leukemic PBMCs from CLL patients; assay type: cell-based; details: 24 and 48 h
# Protocol: (§1) During the first stage, the cytotoxicity analysis of compounds according to the present invention introduced into the culture medium in increasing concentrations (from 0 μM to 60 μM) against leukemic and healthy peripheral blood mononuclear cells (PBMCs). The goal of this stage was to select the optimal concentrations which would be useful for the further comparative analysis of novel compound with conventional chemotherapeutics, i.e. cladribine and fludarabine, in terms of their antileukemic efficacy. The cytotoxicity of compounds was evaluated in PBMCs isolated from the blood of 5 patients with CLL, 1 with PLL and 5 healthy donors after 24 and 48 h. of incubation. Cell survival was evaluated cytometrically using propidium iodide staining using the Membrane Permeability/Dead Cell Apoptosis assay (propidium iodide+YO-PRO). […] FIG. 1a represents the survival of healthy cells treated with compounds according to the present invention at increasing concentrationsand evaluated using the Membrane Permeability/Dead Cell Apoptosis assay.
# (§2) PBMC cells were isolated from peripheral blood using centrifugation via a Histopaque gradient according to the manufacturer's instructions. […] The cytotoxicity was assessed cytometrically after 24 and 48 h incubation.
# (§3) Firstly, it was analyzed by propidium iodide staining. […]
# [1] = tested on: PARP-1, Bax, Bcl-2, Mcl-1; assay: Western blot analysis of apoptosis-related proteins in CLL and PLL cells; assay type: cell-based, human; details: 15 μM; for expression level of Bcl-2 in comparison to vehicle control: PBMC samples from Patient 2, 48 h
# Protocol: The expression of apoptosis-related proteins was assessed in CLL and PLL cells exposed to the tested agents. All examined adenosine derivatives triggered proteolysis of PARP-1 full length protein (116 kDa) to its cleavage product (89 kDa), which is a known marker of apoptosis. Moreover, altered expression of pro-apoptotic (Bax) and anti-apoptotic proteins (Mcl-1, Bcl-2) from Bcl-2 family was also observed in purine derivative-treated leukemic cells. However, there were some individual differences between basal levels of these apoptotic regulators in model cells, as well as the changes in their cellular levels after the agent exposure were diverse. For instance, there were no significant alterations in Bax/Bcl-2 ratio in cell samples obtained from exemplary patient 1 exposed to the novel nucleosides.
# Control PBMCs (without the agents), as well as the cells samples exposed to DMSO (vehicle control) and the tested agents were lysed (4° C., 1 h) in a buffer containing 10 mM Tris-HCl (pH 7.5), 300 mM NaCl, 1% Triton X-100, 2 mM MgCl2, 0.1 M DTT, and protease inhibitors as described previously (A., Kobylinska, J., Bednarek, J. Z., Blonski, M., Hanausek, Z., Walaszek, H., Piekarski, T., Robak, Z. M., Kilianska. 2006. In vitro sensitivity of B-cell chronic lymphocytic leukemia to cladribine and its combinations with mafosfamide and/or mitoxantrone, Oncol. Rep., 16, 1389-1395). Protein content was estimated according to Lowry method (O. H., Lowry, N. J., Rosebrough, A. L., Farr, R. J., Randall. 1951. Protein measurement with the Folin phenol reagent. J. Biol. Chem., 193, 265-275) and the cell lysates were prepared for subsequent Western blotting analysis. Protein samples (60 μg/lane) were separated by SDS polyacrylamide gel electrophoresis (SDS-PAGE) on 8.0 or 12.5% slab gels and electrotransfered onto Immobilon P (H., Towbin, T., Staechlin, J., Gordon, 1979, Electrophoretic transfer of protein from polyacrylamide gels to nitrocellulose sheets: procedure and some applications. Proc. Natl. Acad. Sci. USA, 76, 4350-4354). Membrane staining with 0.5% Ponceau S solution was done to confirm equal protein loading and completeness of the transfer. The membranes were saturated in 5.0% skim milk in TBS (10 mM Tris-HC1, pH 7.5, 150 mM NaC1) for 1 h at ambient temperature, and then incubated overnight with antibodies specific to Mcl -1 (1:1000), Bcl-2 (1:1000), Bax (1:1000), PARP-1 (1:1000), all from Santa Cruz Biotechnology Inc. Antigen recognition was performed with appropriate secondary antibodies conjugated with horseradish peroxidase. The antigen-antibodies complexes were detected with Novex HRP Chromogenic substrate (TMB) from Invitrogen or, alternatively, by chemiluminescence method (see results in FIG. 3).
# caspase 3 = assay: Caspase-3 activation assay (PE Active Caspase-3 Apoptosis Kit, flow cytometry); assay type: cell-based, human; set-up: number of caspase-3-positive cells: dose or concentration left out as unconfirmed; details: PLL cells; for number of cells with active form of caspase 3: 48 h drug exposure, 15 μM
# Protocol: Caspase 3 is a main effector caspase which is involved in apoptosis process realization (Miura M., Zhu H., Otello R., Hartwieg E.A., Yuan J. 1993. Induction of apoptosis in fibroblasts by IL-1 beta-converting enzyme, a mammalian homolog of the C. elegans cell death gene ced-3, Cell, 75, 653-660). […] Our analysis, conducted after 48 h drug exposure, confirmed that in PLL cells a high antileukemic potential of adenosine modified at C-2 position with boron cluster is related to apoptosis induction. The number of cells with active form of the enzyme raised after the exposure to compound 3 from 9.4% and 10.6% in control and vehicle control (DMSO), respectively, to 28.5%. Similar effect (20,1%) was observed after the incubation of PLL cells with cladribine at concentration of 15 μM which recursively exceeds its level in serum of patients during antileukemic therapy. […] Of note, compound 5 affected PLL cells weaker than compound 3 which was confirmed by caspase 3 activation in 16.1% of leukemic cells.
# The percent of leukemic PBMCs with active form of caspase-3 was measured cytometrically by PE Active Caspase-3 Apoptosis Kit, BD Pharmingen according to manufacturer's protocol. The analyses were conducted after 48 h incubation with/without (control) the agents or DMSO (vehicle control). BD LSR II flow cytometer was used and the analyses were performed using FACSDiva Version 6.1.2 software (see results in FIG. 2).
# normal PBMCs = assay: Cytotoxicity in normal PBMCs (propidium iodide; Membrane Permeability/Dead Cell Apoptosis Kit); assay type: cell-based, human; details: normal PBMCs from healthy donors, 24 and 48 h
# Protocol: as §1, §2, §3
# PLL cells = assay: Viability and apoptosis induction in PLL PBMCs (Membrane Permeability/Dead Cell Apoptosis Kit); assay type: cell-based, human; details: 15 μM, 1 case of PLL, very preliminary data
# Protocol: The 15 μM concentration of the used agents, as safe for normal PBMCs, was selected for further analyses with regard to their apoptosis-inducing potential. The viability and apoptosis induction were examined in cell samples obtained from peripheral blood of 6 patients with leukemia (5 cases of CLL and 1 case of PLL). […] It is worth noting that the agents differed in their apoptosis inducing potential in PLL cells.
# Firstly, it was analyzed by propidium iodide staining. Then, Membrane Permeability/Dead Cell Apoptosis Kit (Molecular Probes, Invitrogen™) was used to examine the contribution of apoptosis to cell death induction after exposure to the used agents. The analyses were performed on BD LSR II flow cytometry using FACSDiva Version 6.1.2 software. Ten thousand events were examined for each analysis. The distinction between living (YO-PRO-negative/propidium iodide-negative), early apoptotic (YO-PRO-positive/propidium iodide-negative) and dead (YO-PRO-positive/propiodium iodide-positive) cells was based on the differences in their permeability for fluorescent dyes. The results are shown as the percent of viable and early apoptotic cells in gated PBM cell population, respectively.
# For further analyses the concentration of 15 μM of all tested agents was chosen. […]
Compound,cytotoxicity / anti-leukemic potential against CLL cells (CLL cells),expression level of Bcl-2 in comparison to vehicle control [1],number of cells with active form of caspase 3 (caspase 3),cytotoxicity against normal PBMCs (normal PBMCs),anti-leukemic (apoptosis inducing) potential against PLL cells (PLL cells),"Bax expression level ([1]; cells from patient 1, 48 h)","Bcl-2 protein level ([1]; cells from patient 1, 48 h)",number of caspase-3-positive cells (caspase 3; 48 h)
"2-ethynyl-(1,12-dicarba-closo-dodecaboran-2-yl)adenosine [compound 3]",smaller anti-leukemic potential against CLL cells than compound 5,clear decrease,28.5%,less cytotoxic against normal PBMCs; also recorded: lower than fludarabine,very potent against PLL cells; also recorded: even higher than that of cladribine and fludarabine,–,–,–
"8-ethynyl-(1,12-dicarba-closo-dodecaboran-2-yl-2′-deoxyadenosine [compound 5]",more cytotoxic in comparison to compound 3,clear decrease,16.1%,–,–,–,–,–
"Nc1nc(Cl)nc2c1ncn2[C@H]1C[C@H](O)[C@@H](CO)O1 [cladribine, reference compound]",–,–,"20,1%",–,–,essential increase,diminution,11.8%
Nc1nc(F)nc2c1ncn2[C@@H]1O[C@H](CO)[C@@H](O)[C@@H]1O [fludarabine],–,–,11.8%,–,–,–,–,–
